Our source for the T/C values is PubChem BioAssay AID248 (DTP/NCI, 2004).

Where “and” joins values, the source holds several entries; their conditions need not be identical. Equal entries are not always repeated. Inconclusive results and toxic doses are left out.

The experiment relates to L1210 leukemia ip in BDF1 mice, survival T/C. Briefly: NCI In Vivo Anticancer Drug Screen. Data for tumor model L1210 Leukemia (intraperitoneal) in B6D2F1 (BDF1) mice. As to conditions: endpoint: mean survival time, higher = longer survival. A digest of the protocol:
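Survival endpoint. Drug-treated group vs vehicle group, expressed as T divided by C. Tumor passaged by transplantation.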

The mark [1] stands for this setting: dose: 100.0 mg/kg/injection, schedule: Q01DX009 (ip), vehicle: saline with Tween-80.
The mark [2] stands for this setting: dose: 200.0 mg/kg/injection, schedule: Q01DX009 (ip), vehicle: saline with Tween-80.
[3] abbreviates: dose: 400.0 mg/kg/injection, schedule: Q01DX009 (ip), vehicle: saline with Tween-80.
Where [4] appears, read: dose: 100.0 mg/kg/injection, schedule: Q01DX001 (ip), vehicle: saline.
Setting [5] is: dose: 200.0 mg/kg/injection, schedule: Q01DX001 (ip), vehicle: saline.
Where [6] appears, read: dose: 50.0 mg/kg/injection, schedule: Q01DX009 (ip), vehicle: saline with Tween-80.
Where [7] appears, read: dose: 100.0 mg/kg/injection, schedule: Q01DX001 (ip), vehicle: saline with Tween-80.
The mark [8] stands for this setting: dose: 100.0 mg/kg/injection, schedule: Q04DX003 (ip), vehicle: saline with Tween-80.
Setting [9] is: dose: 200.0 mg/kg/injection, schedule: Q01DX001 (ip), vehicle: saline with Tween-80.
Where [10] appears, read: dose: 200.0 mg/kg/injection, schedule: Q04DX003 (ip), vehicle: saline with Tween-80.
[11] abbreviates: dose: 100.0 mg/kg/injection, schedule: Q01DX009 (ip), vehicle: Klucel (hydroxypropylcellulose) (HPC).
The mark [12] stands for this setting: dose: 100.0 mg/kg/injection, schedule: Q04DX003 (ip), vehicle: Klucel (hydroxypropylcellulose) (HPC).
The mark [13] stands for this setting: dose: 200.0 mg/kg/injection, schedule: Q01DX009 (ip), vehicle: Klucel (hydroxypropylcellulose) (HPC).
Setting [14] is: dose: 200.0 mg/kg/injection, schedule: Q04DX003 (ip), vehicle: Klucel (hydroxypropylcellulose) (HPC).
Setting [15] is: dose: 400.0 mg/kg/injection, schedule: Q04DX003 (ip), vehicle: Klucel (hydroxypropylcellulose) (HPC).
The mark [16] stands for this setting: dose: 100.0 mg/kg/injection, schedule: Q01DX001 (ip), vehicle: Klucel (hydroxypropylcellulose) (HPC).

Take `CCCCOC(=O)/C(=C\c1cccc(OC)c1)NC(=O)c1ccccc1`: the T/C (dose: 50.0 mg/kg/injection, schedule: Q01DX009 (ip), vehicle: other) was 92 % of control; the T/C (dose: 100.0 mg/kg/injection, schedule: Q01DX009 (ip), vehicle: other) was 89 % of control; the T/C (dose: 200.0 mg/kg/injection, schedule: Q01DX009 (ip), vehicle: other) was 100 % of control and 91 % of control; the T/C (dose: 400.0 mg/kg/injection, schedule: Q01DX009 (ip), vehicle: other) is 88 % of control.

In the case of `CC(C)OC(=O)Nc1ccc(Cl)cc1`, the T/C is 94 % of control under setting [1], 97 % of control under setting [2] and 94 % of control under setting [3].

For `CCCCC(=O)c1cc2ccccc2c2ccccc12`, the T/C was 94 % of control under setting [4]; 88 % of control under setting [5]; 98 % of control (dose: 400.0 mg/kg/injection, schedule: Q01DX001 (ip), vehicle: saline).

As to `CCC1(C)CCC2(C)C(CCC3C(C)(CO)CCCC32O)C1` (configuration not stated), the T/C reads like this: (dose: 12.5 mg/kg/injection, schedule: Q04DX002 (ip), vehicle: saline with Tween-80) 96 % of control; (dose: 25.0 mg/kg/injection, schedule: Q04DX002 (ip), vehicle: saline with Tween-80) 96 % of control; (dose: 50.0 mg/kg/injection, schedule: Q04DX002 (ip), vehicle: saline with Tween-80) 96 % of control.

Take `CCCSc1nccc2n[nH]nc12`: the T/C is, setting by setting: under setting [6], 95 % of control; (dose: 50.0 mg/kg/injection, schedule: Q04DX003 (ip), vehicle: saline with Tween-80) 98 % of control; under setting [7], 90 % of control; under setting [1], 93 % of control; under setting [8], 96 % of control; under setting [9], 95 % of control. Further, the T/C runs as follows: under setting [2], 95 % of control; under setting [10], 100 % of control.

On to `COC(=O)C1C=CCC2C(=O)C=C(C)C(=O)C12C` (configuration not stated), for which the T/C under setting [11] was 94 % of control; the T/C under setting [12] was 96 % of control; the T/C under setting [13] was 92 % of control; the T/C under setting [14] is 100 % of control; the T/C (dose: 400.0 mg/kg/injection, schedule: Q01DX009 (ip), vehicle: Klucel (hydroxypropylcellulose) (HPC)) was 97 % of control; the T/C under setting [15] was 96 % of control.

With `CNC(Cc1ccccc1)c1ccc(OC)cc1` (configuration not stated), the T/C is 100 % of control under setting [11]; 96 % of control under setting [12]; 98 % of control under setting [13]; 98 % of control under setting [14]; 101 % of control under setting [15].

On to `CC(C)=CCCC(=O)NC(=O)NS(=O)(=O)c1ccc(Cl)cc1`, for which the T/C is 109 % of control (dose: 50.0 mg/kg/injection, schedule: Q01DX009 (ip), vehicle: Klucel (hydroxypropylcellulose) (HPC)); 100 % of control under setting [11]; 96 % of control under setting [13].

Turning to `CC1=CC(C)(C)NC(=S)N1c1ccc(O)cc1`, the T/C is 92 % of control (dose: 75.0 mg/kg/injection, schedule: Q01DX009 (ip), vehicle: saline with Tween-80); 101 % of control (dose: 150.0 mg/kg/injection, schedule: Q01DX009 (ip), vehicle: saline with Tween-80); 90 % of control (dose: 300.0 mg/kg/injection, schedule: Q01DX009 (ip), vehicle: saline with Tween-80).

`Clc1ccc(C(c2cccs2)N2CCNCC2)cc1` (configuration not stated): the T/C by setting is: (dose: 25.0 mg/kg/injection, schedule: Q01DX009 (ip), vehicle: saline with Tween-80) 96 % of control; under setting [6], 90 % of control; under setting [8], 98 % of control.

On to `CC(=O)[S][Pb]([c]1ccccc1)([c]1ccccc1)[c]1ccccc1`, for which the T/C runs as follows: (dose: 1.0 mg/kg/injection, schedule: Q01DX009 (ip), vehicle: saline) 93 % of control; (dose: 2.0 mg/kg/injection, schedule: Q01DX009 (ip), vehicle: saline) 93 % of control; (dose: 4.0 mg/kg/injection, schedule: Q01DX009 (ip), vehicle: saline) 95 % of control and 100 % of control; (dose: 5.9 mg/kg/injection, schedule: Q01DX009 (ip), vehicle: saline) 86 % of control.

In the case of `CCCCCCCC/C=C\CCCCCCCC(=O)OCC#CCOC(=O)CCCCCCC/C=C/CCCCCCCC`, the T/C under setting [7] is 94 % of control; the T/C under setting [1] was 95 % of control and 101 % of control; the T/C (dose: 100.0 mg/kg/injection, schedule: Q04DX002 (ip), vehicle: saline with Tween-80) is 97 % of control and 102 % of control; the T/C under setting [9] was 91 % of control; the T/C under setting [2] was 93 % of control and 94 % of control; the T/C (dose: 200.0 mg/kg/injection, schedule: Q04DX002 (ip), vehicle: saline with Tween-80) was 97 % of control and 104 % of control. Also, the T/C runs as follows: (dose: 400.0 mg/kg/injection, schedule: Q01DX001 (ip), vehicle: saline with Tween-80) 94 % of control; under setting [3], 95 % of control and 97 % of control; (dose: 400.0 mg/kg/injection, schedule: Q04DX002 (ip), vehicle: saline with Tween-80) 96 % of control and 108 % of control.

Turning to `CC(C)C(C)(O)C(N)=O` (configuration not stated), the T/C reads like this: under setting [4], 106 % of control; under setting [5], 101 % of control.

Take `Cc1ccc(-n2c(=O)c(N=Nc3ccccc3C)c(O)n(-c3ccccc3Cl)c2=S)cc1`: the T/C is 104 % of control (dose: 50.0 mg/kg/injection, schedule: Q01DX001 (ip), vehicle: Klucel (hydroxypropylcellulose) (HPC)); 94 % of control under setting [16]; 98 % of control (dose: 200.0 mg/kg/injection, schedule: Q01DX001 (ip), vehicle: Klucel (hydroxypropylcellulose) (HPC)).

As to `O=S(=O)(Nc1ccc(Br)c2ccccc12)c1ccccc1`, the T/C (dose: 25.0 mg/kg/injection, schedule: Q01DX001 (ip), vehicle: saline sonified) is 97 % of control; the T/C (dose: 50.0 mg/kg/injection, schedule: Q01DX001 (ip), vehicle: saline sonified) is 92 % of control; the T/C (dose: 100.0 mg/kg/injection, schedule: Q01DX001 (ip), vehicle: saline sonified) was 92 % of control.

Regarding `Nc1ccn([C@@H](C=O)O[C@@H](C=O)CO)c(=O)n1`, the T/C by setting is: (dose: 35.0 mg/kg/injection, schedule: Q01DX009 (ip), vehicle: water) 111 % of control; (dose: 35.0 mg/kg/injection, schedule: Q01DX Z (ip), vehicle: water) 107 % of control; (dose: 70.0 mg/kg/injection, schedule: Q01DX009 (ip), vehicle: water) 122 % of control; (dose: 70.0 mg/kg/injection, schedule: Q01DX Z (ip), vehicle: water) 123 % of control; (dose: 140.0 mg/kg/injection, schedule: Q01DX009 (ip), vehicle: water) 161 % of control.

Regarding `O=C1c2ccccc2C(=O)N1CNc1cccc(NCN2C(=O)c3ccccc3C2=O)c1`, the T/C under setting [8] is 91 % of control; the T/C under setting [10] is 97 % of control; the T/C (dose: 400.0 mg/kg/injection, schedule: Q04DX003 (ip), vehicle: saline with Tween-80) is 102 % of control.

As for `COc1cc(C)c2oc(C)nc2c1`, the T/C is, setting by setting: under setting [16], 92 % of control; (dose: 400.0 mg/kg/injection, schedule: Q01DX001 (ip), vehicle: Klucel (hydroxypropylcellulose) (HPC)) 92 % of control.
